For assay [1], the system named is FGF-2 high-affinity receptors. Kind of assay: Inhibition of binding of 125I-FGF-2 to high-affinity receptors on endothelial cells. Conditions: 125I-FGF-2 10 ng/ml, 2 h at 4° C., read-out: I50, inhibition of the binding of FGF-2 to the high-affinity receptors. The protocol:
The inhibition of the binding of FGF-2 to high-affinity receptors (Table 1) is measured in the following manner. FGF-2 is radiolabeled with ^125I-Na, and 10 ng/ml are incubated with endothelial cells for 2 h at 4° C. The radioactivity bound to high-affinity receptors is then determined. The specific binding is estimated by subtracting the nonspecific binding from the total binding (in the presence of a 100-fold excess of cold ligand relative to the hot ligand). The I50 is the concentration which inhibits specific binding by 50%.
(§1) A more detailed description of these measurements of I50 may be found in Jouan et al. and in Perollet et al. cited above.

Assay [2] deals with proteoglycans. Description: Inhibition of binding of 125I-FGF-2 to proteoglycans on endothelial cells. The note with it: 125I-FGF-2 10 ng/ml, 2 h at 4° C., read-out: I50, inhibition of the binding of FGF-2 to proteoglycans. The protocol:
The inhibition of the binding of FGF-2 to the proteoglycans (Table 2) is measured in the following manner. FGF-2 is radiolabeled with ^125I-Na, and 10 ng/ml are incubated with endothelial cells for 2 h at 4° C. The radioactivity bound to the proteoglycans is then determined. The specific binding is estimated by subtracting the nonspecific binding from the total binding (in the presence of a 100-fold excess of cold […] relative to the hot ligand). The I50 is the concentration which inhibits specific binding by 50%.
as §1

Assay [3] deals with VEGF receptors. Kind of assay: Inhibition of binding of 125I-VEGF to surface receptors on endothelial cells. The note with it: 125I-VEGF 10 ng/ml, 2 h at 4° C., read-out: I50, inhibition of the binding of VEGF to the high-affinity receptors. The protocol: The inhibition of the binding of VEGF to the surface receptors (Table 1) is measured in the following manner. VEGF is radiolabeled with ^125I-Na, and 10 ng/ml are incubated with endothelial cells for 2 h at 4° C. The radioactivity bound to the receptors is then determined. The specific binding is estimated by subtracting the nonspecific binding from the total binding (in the presence of a 100-fold excess of cold ligand relative to the hot ligand). The I50 is the concentration which inhibits specific binding by 50%.
as §1

Assay [4] concerns proliferation induced by FGF-2. Description: Inhibition of the biological activity of FGF-2 (FGF-2-induced cell proliferation, cell count). Format: cell-based. Conditions: 20 000 cells, 10 ng/ml FGF-2, DMEM 1% FCS, counted on day 6; read-out: I50, inhibition of cell proliferation. Here is the method:
The inhibition of the biological activity of FGF-2 (Table 3) is measured in the following manner: 20 000 cells are incubated with 10 ng/ml of FGF-2 in DMEM medium containing 1% fetal calf serum (FCS) in dishes 3.5 cm in diameter in the presence or in the absence of peptide. The cells are counted on the 6 day using a Coulter counter. The experiments are carried out in duplicate. The I50 is the concentration which inhibits the proliferation induced by FGF-2 by 50%.
as §1

Assay [5] relates to angiogenesis. Kind of assay: Inhibitory activity tests of the fusion peptide (method not described). The note with it: test not specified.

As for “Peptide 47-70 DLQ: nonmutated PF-4 fragment 47-70, control peptide used as comparative example (NGRKICLDLQAPLYKKIIKKLLES; Platelet factor 4; UniProt P02776 78-101, looked up, fragment) [reference compound]”, the IC50 in assay [1] is 1500 nM; in assay [2], 3500 nM; in assay [3], 1500 nM; in assay [4], 2800 nM.
Turning to “Peptide 47-70 DLR: PF-4 fragment 47-70 with glutamine in position 56 replaced by arginine (SEQ. ID. No:3) (NGRKICLDLRAPLYKKIIKKLLES; SEQ ID NO. 3 is the 47-70 fragment of mutated PF-4 SEQ ID. NO. 2)”, the IC50 in assay [1] came to 300 nM; in assay [2], 600 nM; in assay [3], 300 nM; in assay [4], 400 nM.
In the case of “fusion peptide 17-34/47-70: fusion peptide 17-34/47-70 derived from PF-4; the mutated form is SEQ. ID. No:4 (SQVRPRHITSLEVIKAGPNGRKICLDLRAPLYKKIIKKLLES; SEQ ID NO. 4 is the 17-34/47-70 fragment of mutated PF-4 SEQ. ID NO. 2.) [fusion peptide 17-34/47-70 derived from PF-4; ID; No:4]”, in assay [5], the “Inhibitory activity compared with native PF-4 or fragment 47-70” value is “inhibitory activity greater than that of native PF-4 or of fragment 47-70”.
